Assay results as given in the kinase profiling compilation of Christmann-Franck et al. (2016).
Values joined by “and” are separate entries in the source; they are usually repeats but may differ in a detail not shown here. Equal values may be shown once.

What was measured:
Assay in all cases: Caliper, Mobility shift assay off-chip
ALK (human) = ALK (human) (UniProt Q9UM73)
ALK EML4 (human) = ALK EML4 (human) (UniProt Q9HC35+Q9UM73)
AXL (human) = AXL (human) (UniProt P30530)
BRSK2 (human) = BRSK2 (human) (UniProt Q8IWQ3)
BRSK2 (human), sequence (Q8IWQ3 whole entry, looked up): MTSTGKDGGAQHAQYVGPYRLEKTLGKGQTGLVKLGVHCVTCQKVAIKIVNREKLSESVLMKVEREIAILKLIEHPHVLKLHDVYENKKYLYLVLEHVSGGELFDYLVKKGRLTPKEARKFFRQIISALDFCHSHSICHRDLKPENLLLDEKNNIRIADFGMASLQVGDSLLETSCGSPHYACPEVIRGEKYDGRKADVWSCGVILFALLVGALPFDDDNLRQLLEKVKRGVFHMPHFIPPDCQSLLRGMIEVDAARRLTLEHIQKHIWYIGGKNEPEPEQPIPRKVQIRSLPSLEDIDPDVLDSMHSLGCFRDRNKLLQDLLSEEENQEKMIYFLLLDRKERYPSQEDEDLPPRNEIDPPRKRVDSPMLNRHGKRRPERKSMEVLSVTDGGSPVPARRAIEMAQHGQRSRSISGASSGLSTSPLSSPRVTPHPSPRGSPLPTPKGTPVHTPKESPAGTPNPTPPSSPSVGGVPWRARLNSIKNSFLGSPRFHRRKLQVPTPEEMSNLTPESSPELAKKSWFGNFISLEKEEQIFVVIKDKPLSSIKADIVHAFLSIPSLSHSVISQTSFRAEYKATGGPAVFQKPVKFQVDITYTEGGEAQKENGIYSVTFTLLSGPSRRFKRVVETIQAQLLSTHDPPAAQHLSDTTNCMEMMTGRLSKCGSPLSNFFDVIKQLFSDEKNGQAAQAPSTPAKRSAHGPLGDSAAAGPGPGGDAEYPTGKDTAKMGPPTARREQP

CDK9 (human) = CDK9 (human) (UniProt P50750)
DYRK2 (human) = DYRK2 (human) (UniProt Q92630)
EPHA3 (human) = EPHA3 (human) (UniProt P29320)
EPHA6 (human) = EPHA6 (human) (UniProt Q9UF33)
FER (human) = FER (human) (UniProt P16591)
HIPK1 (human) = HIPK1 (human) (UniProt Q86Z02)
IKBKB (human) = IKBKB (human) (UniProt O14920)
JAK2 JH1 JH2 (human) = JAK2 JH1 JH2 (human) (UniProt O60674)
JAK3 JH1 JH2 (human) = JAK3 JH1 JH2 (human) (UniProt P52333)
MAP4K2 (human) = MAP4K2 (human) (UniProt Q12851)
MAPK3 (human) = MAPK3 (human) (UniProt P27361)
NUAK2 (human) = NUAK2 (human) (UniProt Q9H093)
PIM3 (human) = PIM3 (human) (UniProt Q86V86)
PLK3 (human) = PLK3 (human) (UniProt Q9H4B4)
PLK3 (human), sequence (Q9H4B4 whole entry, looked up): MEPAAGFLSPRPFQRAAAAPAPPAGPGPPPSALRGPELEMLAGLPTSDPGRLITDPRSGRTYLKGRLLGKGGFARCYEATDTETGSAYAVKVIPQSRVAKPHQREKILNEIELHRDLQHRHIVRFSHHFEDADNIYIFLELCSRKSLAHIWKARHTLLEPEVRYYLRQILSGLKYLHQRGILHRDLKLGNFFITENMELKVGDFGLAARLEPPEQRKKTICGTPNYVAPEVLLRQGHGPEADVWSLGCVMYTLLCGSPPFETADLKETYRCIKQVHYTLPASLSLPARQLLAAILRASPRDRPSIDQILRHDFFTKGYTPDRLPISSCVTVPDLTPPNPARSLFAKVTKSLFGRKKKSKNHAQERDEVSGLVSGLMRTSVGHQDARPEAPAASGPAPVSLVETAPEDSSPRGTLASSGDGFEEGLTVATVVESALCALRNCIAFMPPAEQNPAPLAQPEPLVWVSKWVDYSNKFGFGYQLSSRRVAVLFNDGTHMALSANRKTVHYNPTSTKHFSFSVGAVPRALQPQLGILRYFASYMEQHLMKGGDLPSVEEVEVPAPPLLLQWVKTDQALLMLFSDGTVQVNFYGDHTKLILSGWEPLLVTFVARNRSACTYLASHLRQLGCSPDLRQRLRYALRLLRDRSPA

PRKCB1 (human) = PRKCB1 (human) (UniProt P05771)
ROS1 (human) = ROS1 (human) (UniProt P08922)
ROS1 (human), sequence (P08922 whole entry, looked up): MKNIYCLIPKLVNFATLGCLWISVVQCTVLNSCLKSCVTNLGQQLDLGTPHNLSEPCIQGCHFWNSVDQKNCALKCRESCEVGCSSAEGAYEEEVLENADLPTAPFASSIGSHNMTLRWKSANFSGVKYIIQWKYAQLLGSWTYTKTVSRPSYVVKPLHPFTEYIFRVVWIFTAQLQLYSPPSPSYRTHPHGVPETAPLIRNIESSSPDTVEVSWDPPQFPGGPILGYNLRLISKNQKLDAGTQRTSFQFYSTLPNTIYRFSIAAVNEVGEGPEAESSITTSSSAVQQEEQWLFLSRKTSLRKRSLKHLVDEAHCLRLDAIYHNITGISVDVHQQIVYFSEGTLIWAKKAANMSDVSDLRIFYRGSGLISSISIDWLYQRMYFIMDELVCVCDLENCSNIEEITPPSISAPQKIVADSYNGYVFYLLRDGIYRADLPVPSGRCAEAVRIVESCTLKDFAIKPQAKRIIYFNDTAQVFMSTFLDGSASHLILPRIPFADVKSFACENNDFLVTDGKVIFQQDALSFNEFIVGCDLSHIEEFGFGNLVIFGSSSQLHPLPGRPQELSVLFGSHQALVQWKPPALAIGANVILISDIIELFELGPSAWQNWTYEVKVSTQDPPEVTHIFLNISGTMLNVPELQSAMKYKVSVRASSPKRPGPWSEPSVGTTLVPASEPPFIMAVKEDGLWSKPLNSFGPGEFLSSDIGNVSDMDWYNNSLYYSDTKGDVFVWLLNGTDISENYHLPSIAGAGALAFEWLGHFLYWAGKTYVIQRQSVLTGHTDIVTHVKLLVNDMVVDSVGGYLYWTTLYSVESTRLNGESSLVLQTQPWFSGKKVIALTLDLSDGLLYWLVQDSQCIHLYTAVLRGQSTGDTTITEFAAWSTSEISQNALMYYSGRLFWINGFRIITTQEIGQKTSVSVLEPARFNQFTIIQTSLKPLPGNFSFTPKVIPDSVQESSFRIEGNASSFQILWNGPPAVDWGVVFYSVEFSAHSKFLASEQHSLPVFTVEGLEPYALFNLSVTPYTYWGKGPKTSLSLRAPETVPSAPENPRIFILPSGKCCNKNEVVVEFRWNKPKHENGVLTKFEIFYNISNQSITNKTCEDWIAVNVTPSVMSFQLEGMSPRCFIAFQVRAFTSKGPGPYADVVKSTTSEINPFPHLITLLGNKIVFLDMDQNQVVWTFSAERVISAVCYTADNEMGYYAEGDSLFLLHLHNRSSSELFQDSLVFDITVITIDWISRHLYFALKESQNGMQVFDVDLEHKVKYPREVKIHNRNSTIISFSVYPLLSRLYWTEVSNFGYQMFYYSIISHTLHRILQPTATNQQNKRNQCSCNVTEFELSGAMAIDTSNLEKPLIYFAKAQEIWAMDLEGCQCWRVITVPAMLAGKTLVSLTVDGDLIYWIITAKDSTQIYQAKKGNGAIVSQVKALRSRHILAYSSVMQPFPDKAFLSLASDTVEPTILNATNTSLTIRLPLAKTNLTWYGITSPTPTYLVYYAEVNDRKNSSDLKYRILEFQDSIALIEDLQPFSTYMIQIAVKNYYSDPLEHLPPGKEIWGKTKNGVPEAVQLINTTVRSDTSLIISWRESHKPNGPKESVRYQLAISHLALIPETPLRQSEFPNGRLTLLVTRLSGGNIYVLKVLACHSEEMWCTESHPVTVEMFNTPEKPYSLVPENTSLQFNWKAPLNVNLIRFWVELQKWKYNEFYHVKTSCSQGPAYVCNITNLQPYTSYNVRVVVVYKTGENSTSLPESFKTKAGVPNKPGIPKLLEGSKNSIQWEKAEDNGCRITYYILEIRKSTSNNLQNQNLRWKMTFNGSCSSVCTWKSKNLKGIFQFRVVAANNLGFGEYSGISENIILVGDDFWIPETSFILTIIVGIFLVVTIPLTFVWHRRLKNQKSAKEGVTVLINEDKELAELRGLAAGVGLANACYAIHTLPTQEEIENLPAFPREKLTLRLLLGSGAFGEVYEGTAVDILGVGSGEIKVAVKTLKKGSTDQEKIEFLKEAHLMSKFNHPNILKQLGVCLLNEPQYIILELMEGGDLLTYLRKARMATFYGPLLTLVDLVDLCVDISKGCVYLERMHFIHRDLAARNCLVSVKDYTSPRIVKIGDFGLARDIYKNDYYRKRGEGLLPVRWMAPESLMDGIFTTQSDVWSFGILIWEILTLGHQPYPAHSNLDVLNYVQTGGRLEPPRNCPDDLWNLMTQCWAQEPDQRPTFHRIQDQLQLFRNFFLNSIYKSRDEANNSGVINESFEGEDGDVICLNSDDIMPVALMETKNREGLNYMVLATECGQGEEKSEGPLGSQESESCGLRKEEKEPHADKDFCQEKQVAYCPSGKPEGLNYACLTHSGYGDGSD

RPS6KA1 KD1 KD2 (human) = RPS6KA1 KD1 KD2 (human) (UniProt Q15418)
RPS6KA3 KD1 KD2 (human) = RPS6KA3 KD1 KD2 (human) (UniProt P51812); conditions: compound 0.2 µM
RPS6KA4 KD1 KD2 (human) = RPS6KA4 KD1 KD2 (human) (UniProt O75676)
SGK3 (human) = SGK3 (human) (UniProt Q96BR1)
SGK3 (human), sequence (Q96BR1 whole entry, looked up): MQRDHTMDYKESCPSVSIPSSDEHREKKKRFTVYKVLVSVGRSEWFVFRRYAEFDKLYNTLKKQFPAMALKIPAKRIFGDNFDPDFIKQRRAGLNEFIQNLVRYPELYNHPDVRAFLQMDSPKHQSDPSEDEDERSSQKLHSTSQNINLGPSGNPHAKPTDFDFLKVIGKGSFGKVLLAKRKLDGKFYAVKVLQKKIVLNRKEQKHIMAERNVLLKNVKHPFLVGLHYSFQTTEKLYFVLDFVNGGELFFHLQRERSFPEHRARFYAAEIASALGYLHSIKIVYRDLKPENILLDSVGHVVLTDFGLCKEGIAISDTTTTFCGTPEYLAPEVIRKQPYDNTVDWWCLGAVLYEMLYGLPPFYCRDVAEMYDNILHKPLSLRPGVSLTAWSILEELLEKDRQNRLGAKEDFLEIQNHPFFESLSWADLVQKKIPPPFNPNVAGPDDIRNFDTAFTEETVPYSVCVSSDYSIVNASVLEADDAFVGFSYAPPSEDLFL

SPHK1 (human) = SPHK1 (human) (UniProt Q9NYA1)
STK38L (human) = STK38L (human) (UniProt Q9Y2H1)
TEK (human) = TEK (human) (UniProt Q02763)
TXK (human) = TXK (human) (UniProt P42681)
ZAP70 (human) = ZAP70 (human) (UniProt P43403)
CLK1 (human) = CLK1 (human) (UniProt P49759)
CSNK1G3 (human) = CSNK1G3 (human) (UniProt Q9Y6M4)
INSR (human) = INSR (human) (UniProt P06213)
PAK3 (human) = PAK3 (human) (UniProt O75914)
PIK3CA PIK3R1 (human) = PIK3CA PIK3R1 (human) (UniProt P27986+P42336)

AXL (human), sequence (P30530 whole entry, looked up): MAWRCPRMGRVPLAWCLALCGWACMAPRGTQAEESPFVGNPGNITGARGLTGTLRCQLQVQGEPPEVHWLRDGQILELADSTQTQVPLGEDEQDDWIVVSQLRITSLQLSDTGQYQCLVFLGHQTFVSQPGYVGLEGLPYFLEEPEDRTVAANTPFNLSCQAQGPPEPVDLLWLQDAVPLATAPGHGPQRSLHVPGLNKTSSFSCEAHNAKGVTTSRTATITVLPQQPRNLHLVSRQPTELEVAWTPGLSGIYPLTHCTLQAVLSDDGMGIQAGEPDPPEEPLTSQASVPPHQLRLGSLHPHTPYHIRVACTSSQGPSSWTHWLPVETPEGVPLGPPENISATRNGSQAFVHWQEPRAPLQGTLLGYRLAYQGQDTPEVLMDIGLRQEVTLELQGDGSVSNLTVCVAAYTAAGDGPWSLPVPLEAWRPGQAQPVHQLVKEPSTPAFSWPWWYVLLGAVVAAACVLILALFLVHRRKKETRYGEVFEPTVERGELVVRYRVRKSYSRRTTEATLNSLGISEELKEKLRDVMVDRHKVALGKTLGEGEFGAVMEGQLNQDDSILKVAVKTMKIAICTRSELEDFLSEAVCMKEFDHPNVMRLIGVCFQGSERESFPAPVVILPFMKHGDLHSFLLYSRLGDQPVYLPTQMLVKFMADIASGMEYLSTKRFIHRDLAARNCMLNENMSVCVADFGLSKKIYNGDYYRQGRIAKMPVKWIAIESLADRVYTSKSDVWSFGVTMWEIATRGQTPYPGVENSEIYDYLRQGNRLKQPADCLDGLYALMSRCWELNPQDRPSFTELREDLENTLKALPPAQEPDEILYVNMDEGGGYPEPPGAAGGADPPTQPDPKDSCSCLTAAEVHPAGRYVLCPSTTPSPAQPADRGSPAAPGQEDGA

## CCN(CC)CCNC(=O)c1c(C)[nH]c(/C=C2\C(=O)Nc3ccc(F)cc32)c1C
ALK (human); compound 0.2 µM
  inhibition: 82.2%
ALK (human); compound 4.0 µM
  inhibition: 102%
ALK EML4 (human); compound 0.2 µM
  inhibition: 70.5%
ALK EML4 (human); compound 4.0 µM
  inhibition: 100%
AXL (human); compound 0.2 µM
  inhibition: 96.8%
AXL (human); compound 4.0 µM
  inhibition: 102%
BRSK2 (human); compound 0.2 µM
  inhibition: 36.7%
BRSK2 (human); compound 4.0 µM
  inhibition: 85.9%
CDK9 (human); compound 0.2 µM
  inhibition: -0.1%
CDK9 (human); compound 4.0 µM
  inhibition: 47.5%
DYRK2 (human); compound 0.2 µM
  inhibition: 25%
DYRK2 (human); compound 4.0 µM
  inhibition: 87.4%
EPHA3 (human); compound 0.2 µM
  inhibition: -0.2%
EPHA3 (human); compound 4.0 µM
  inhibition: 21.2%
EPHA6 (human); compound 0.2 µM
  inhibition: 43.4%
EPHA6 (human); compound 4.0 µM
  inhibition: 92.7%
FER (human); compound 0.2 µM
  inhibition: 78.8%
FER (human); compound 4.0 µM
  inhibition: 102%
HIPK1 (human); compound 0.2 µM
  inhibition: 51.3%
HIPK1 (human); compound 4.0 µM
  inhibition: 94.4%
IKBKB (human); compound 0.2 µM
  inhibition: -2.1%
IKBKB (human); compound 4.0 µM
  inhibition: 4.2%
JAK2 JH1 JH2 (human); compound 0.2 µM
  inhibition: 36.5%
JAK2 JH1 JH2 (human); compound 4.0 µM
  inhibition: 94.6%
JAK3 JH1 JH2 (human); compound 0.2 µM
  inhibition: 37.5%
JAK3 JH1 JH2 (human); compound 4.0 µM
  inhibition: 96%
MAP4K2 (human); compound 0.2 µM
  inhibition: 69.5%
MAPK3 (human); compound 0.2 µM
  inhibition: -4.8%
MAPK3 (human); compound 4.0 µM
  inhibition: -0.9%
NUAK2 (human); compound 0.2 µM
  inhibition: 55.7%
NUAK2 (human); compound 4.0 µM
  inhibition: 95.3%
PIM3 (human); compound 0.2 µM
  inhibition: 3.1%
PIM3 (human); compound 4.0 µM
  inhibition: 42.9%
PLK3 (human); compound 0.2 µM
  inhibition: 0.9%
PLK3 (human); compound 4.0 µM
  inhibition: 0.1%
PRKCB1 (human); compound 0.2 µM
  inhibition: 0% and -1.3%
PRKCB1 (human); compound 4.0 µM
  inhibition: 20% and 27.2%
ROS1 (human); compound 0.2 µM
  inhibition: 18.4%
ROS1 (human); compound 4.0 µM
  inhibition: 81.4%
RPS6KA1 KD1 KD2 (human); compound 0.2 µM
  inhibition: 53.9%
RPS6KA3 KD1 KD2 (human)
  inhibition: 61.7%
RPS6KA4 KD1 KD2 (human); compound 0.2 µM
  inhibition: 15.5%
RPS6KA4 KD1 KD2 (human); compound 4.0 µM
  inhibition: 73.7%
SGK3 (human); compound 4.0 µM
  inhibition: 20.6%
SPHK1 (human); compound 0.2 µM
  inhibition: -10.4%
SPHK1 (human); compound 4.0 µM
  inhibition: -9.1%
STK38L (human); compound 0.2 µM
  inhibition: 6.1%
STK38L (human); compound 4.0 µM
  inhibition: 32.7%
TEK (human); compound 0.2 µM
  inhibition: -3.6%
TEK (human); compound 4.0 µM
  inhibition: 15.3%
TXK (human); compound 0.2 µM
  inhibition: 6.1%
TXK (human); compound 4.0 µM
  inhibition: 43%
ZAP70 (human); compound 0.2 µM
  inhibition: 6.8%
ZAP70 (human); compound 4.0 µM
  inhibition: 37.7%

## CNC(=O)c1ccccc1Sc1ccc2c(/C=C/c3ccccn3)n[nH]c2c1
ALK (human); compound 0.001 µM
  inhibition: 2.5%
ALK (human); compound 0.02 µM
  inhibition: 1.4%
ALK EML4 (human); compound 0.001 µM
  inhibition: -2%
ALK EML4 (human); compound 0.02 µM
  inhibition: -3.9%
AXL (human); compound 0.001 µM
  inhibition: -0.8%
AXL (human); compound 0.02 µM
  inhibition: 4.1%
BRSK2 (human); compound 0.001 µM
  inhibition: -3.5%
BRSK2 (human); compound 0.02 µM
  inhibition: 12.9%
CDK9 (human); compound 0.001 µM
  inhibition: -4.7%
CDK9 (human); compound 0.02 µM
  inhibition: -6.4%
CLK1 (human); compound 0.001 µM
  inhibition: 6.6%
CLK1 (human); compound 0.02 µM
  inhibition: -7.5%
CSNK1G3 (human); compound 0.001 µM
  inhibition: -3.7%
CSNK1G3 (human); compound 0.02 µM
  inhibition: -2.5%
DYRK2 (human); compound 0.001 µM
  inhibition: 8.7%
DYRK2 (human); compound 0.02 µM
  inhibition: -6.4%
EPHA3 (human); compound 0.001 µM
  inhibition: -7.7%
EPHA3 (human); compound 0.02 µM
  inhibition: -4.2%
EPHA6 (human); compound 0.02 µM
  inhibition: 0.3%
FER (human); compound 0.001 µM
  inhibition: 5.9%
FER (human); compound 0.02 µM
  inhibition: 3.9%
HIPK1 (human); compound 0.001 µM
  inhibition: -4.9%
HIPK1 (human); compound 0.02 µM
  inhibition: -0.2%
IKBKB (human); compound 0.001 µM
  inhibition: 5.5%
IKBKB (human); compound 0.02 µM
  inhibition: 3.1%
INSR (human); compound 0.001 µM
  inhibition: -0.3%
INSR (human); compound 0.02 µM
  inhibition: -8.6%
JAK2 JH1 JH2 (human); compound 0.001 µM
  inhibition: 2.5%
JAK2 JH1 JH2 (human); compound 0.02 µM
  inhibition: 4.7%
JAK3 JH1 JH2 (human); compound 0.001 µM
  inhibition: 4.6%
MAP4K2 (human); compound 0.001 µM
  inhibition: -2.6%
MAP4K2 (human); compound 0.02 µM
  inhibition: 4.8%
MAPK3 (human); compound 0.001 µM
  inhibition: -4.1%
MAPK3 (human); compound 0.02 µM
  inhibition: -6.1%
NUAK2 (human); compound 0.001 µM
  inhibition: 9.9%
NUAK2 (human); compound 0.02 µM
  inhibition: -0.7%
PAK3 (human); compound 0.001 µM
  inhibition: -1.3%
PAK3 (human); compound 0.02 µM
  inhibition: 7.8%
PIK3CA PIK3R1 (human); compound 0.001 µM
  inhibition: 40.8%
PIK3CA PIK3R1 (human); compound 0.02 µM
  inhibition: 40.7%
PIM3 (human); compound 0.001 µM
  inhibition: -7.7%
PIM3 (human); compound 0.02 µM
  inhibition: -5.9%
PLK3 (human); compound 0.001 µM
  inhibition: 3.7%
PLK3 (human); compound 0.02 µM
  inhibition: -1.3%
PRKCB1 (human); compound 0.001 µM
  inhibition: 4% and 4.9%
ROS1 (human); compound 0.001 µM
  inhibition: -0.6%
ROS1 (human); compound 0.02 µM
  inhibition: 10.8%
RPS6KA1 KD1 KD2 (human); compound 0.001 µM
  inhibition: -5.4%
RPS6KA1 KD1 KD2 (human); compound 0.02 µM
  inhibition: -2.8%
RPS6KA4 KD1 KD2 (human); compound 0.001 µM
  inhibition: -7.2%
RPS6KA4 KD1 KD2 (human); compound 0.02 µM
  inhibition: -1.1%
SGK3 (human); compound 0.001 µM
  inhibition: 13.9%
SGK3 (human); compound 0.02 µM
  inhibition: 0.8%
SPHK1 (human); compound 0.001 µM
  inhibition: -4.8%
SPHK1 (human); compound 0.02 µM
  inhibition: -4.1%
STK38L (human); compound 0.001 µM
  inhibition: 8.1%
STK38L (human); compound 0.02 µM
  inhibition: -0.1%
TEK (human); compound 0.001 µM
  inhibition: -9%
TEK (human); compound 0.02 µM
  inhibition: -4.9%
TXK (human); compound 0.001 µM
  inhibition: -4%
TXK (human); compound 0.02 µM
  inhibition: -3.9%
ZAP70 (human); compound 0.001 µM
  inhibition: -0.5%
ZAP70 (human); compound 0.02 µM
  inhibition: 2.7%
